# Assay results published in US12415830B2, “Steroid compound, and use thereof and preparation method therefor” (Chengdu Kanghong Pharmaceutical Co Ltd, priority 2019, dated 2025).
# Biological target: T1, GABAA1 (α1β2γ2) receptor (Homo sapiens, UniProt P14867+P47870)
# T1 construct: expressed in transfected cells
# Assay: Patch-clamp electrophysiology on recombinant GABAA1 receptor in HEK293 cells, with 3 μM GABA
# Format: cell-based
# Details: for Emax at 0.1 µM / Emax at 1 µM / Emax: HEK293; for Emax at 0.1 µM: 0.1 μM compound together with 3 μmol GABA; for Emax at 0.1 µM / Emax at 1 µM: read-out: potency: ratio of the peak current on the GABAA1 receptor to the peak current in 100 μmol GABA; for Emax at 1 µM: 1 μM compound together with 3 μmol GABA; for Emax / EC50: together with 3 μmol GABA; for Emax: relative to peak current in 100 μmol GABA
# Description: The present invention applies the two subunits of the recombinant GABAA receptor: α1β2γ2 and α4β3δ to evaluate the potency of the exemplary compounds in vitro by patch-clamp electrophysiology.
# Extracellular fluid: 140 mM NaCl, 5 mM CsCl, 2 mM CaCl2·2H2O, 1 mM MgCl2·6H2O, 5 mM HEPES, 10 mM D-Glucose, pH=7.4 (NaOH).
# Intracellular fluid: 130 mM CsCl, 0.1 mM CaCl2·H2O, 2 mM MgCl2·6H2O, 1.1 mM EGTA, 5 mM Na2-ATP, 10 mM HEPES, pH=7.2 (CsOH).
# The HEK293 cells line stably expressing GABAA (α1β2γ2) receptors was cultured in Dulbecco's Modified Eagle Medium (DMEM) supplemented with 10% fetal bovine serum, 800 μg/mL G418, 200 μg/mL Hygromycin B and 100 μg/mL Zeocin. Cells were grown in a humidified incubator at 37° C. with 5% carbon dioxide.
# Before manual patch clamp test, the cells were detached using 0.25%-Trypsin-EDTA solution. Then 8×10^3 cells were plated onto coverslips, and cultured in a 24-well plate (final medium volume: 500 μL) and tested after 18 hours by patch clamp.
# Glass pipette (BF 150-86-10, Sutter Instruments) was pulled using a micropipette puller (P97, Sutter Instruments). The glass pipette was manipulated using a micro-manipulator (MP285, Sutter Instruments) under the microscope (IX71, Olympus). After touching the cell, a slight suction was applied to achieve high seal resistance (GQ). Fast capacitance (in pF) compensation was made after achieving high seal, and the membrane was broken. Cell capacitance (in pF) compensation was made from whole-cell capacitance compensation after the whole cell mode was achieved. No leak subtraction was made.
# The test and control solutions flowed into a recording chamber mounted on the stage of an inverted microscope via a gravity-fed solution delivery system. During the experiment, solutions were withdrawn from the recording chamber by vacuum aspiration. Each concentration was tested at multiple times. All tests were performed at room temperature.
# Whole cell model recorded GABAA1 receptors current experimental protocol was indicated as follows: When sealing, cell was at a holding potential of −70 mV, with gap-free mode to record the peak current. The cell would be applied with 3 μM GABA to active current. After the test articles application for 30 s, each concentration of test articles was applied with 3 μM GABA followed by 2 minutes washout using extracellular solution. Finally, 100 μM GABA was used as a positive control. The data were collected by EPC-10 amplifier and stored in PatchMaster (HEKA) software.
# The following criteria are used to determine whether the data is acceptable: • (1) Electrode resistance <5MΩ • (2) Seal resistance >1GΩ • (3) The start of access resistance <15 MΩ • (4) The end of access resistance <15 MΩ • (5) No obvious spontaneous current decay. • (6) No obvious current leakage when the membrane potential is-70 mv. 56.6 Data Analysis
# In the detection of GABAA1, the currents of 3 μM GABA and different concentrations of test compounds were respectively normalized to the current of 100 μM GABA
# [formula] and then the activation rate corresponding to each concentration was calculated.
# [formula] and then the activation rate corresponding to each concentration was calculated. Means, Standard Deviation and Standard Error were calculated for each test group. EC50 value was calculated using nonlinear regression: Y=Bottom+(Top−Bottom)/(1+10^((Log EC50−X)×HillSlope))
# To fit data to the concentration-response, EC50 was the concentration giving a half-maximum effect and Hillslope was the Hill coefficient. Curve-fitting and EC50 calculations were performed using Graphpad5.0 software.
# Emax is defined as the ratio of the peak current generated on the GABAA1 receptor to the peak current generated only in 100 μmol of GABA and the ratio is multiplied by 100%. The peak current generated on the GABAA1 receptor is that the exemplary compounds act on the GABAA1 receptor together with 3 μmol GABA.
# T1 sequence (P14867 28-456): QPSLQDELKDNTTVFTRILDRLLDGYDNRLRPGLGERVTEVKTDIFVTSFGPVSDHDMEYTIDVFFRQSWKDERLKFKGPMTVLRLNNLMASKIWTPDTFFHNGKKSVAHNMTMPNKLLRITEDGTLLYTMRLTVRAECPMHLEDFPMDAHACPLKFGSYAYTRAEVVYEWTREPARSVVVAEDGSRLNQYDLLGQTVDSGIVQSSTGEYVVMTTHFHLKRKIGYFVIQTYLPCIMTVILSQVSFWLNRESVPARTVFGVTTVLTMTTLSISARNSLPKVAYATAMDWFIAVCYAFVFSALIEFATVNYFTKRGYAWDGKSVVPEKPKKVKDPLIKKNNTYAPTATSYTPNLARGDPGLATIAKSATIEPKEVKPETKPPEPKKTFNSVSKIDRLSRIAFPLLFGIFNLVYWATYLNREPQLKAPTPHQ
# T1 sequence (P47870 26-512): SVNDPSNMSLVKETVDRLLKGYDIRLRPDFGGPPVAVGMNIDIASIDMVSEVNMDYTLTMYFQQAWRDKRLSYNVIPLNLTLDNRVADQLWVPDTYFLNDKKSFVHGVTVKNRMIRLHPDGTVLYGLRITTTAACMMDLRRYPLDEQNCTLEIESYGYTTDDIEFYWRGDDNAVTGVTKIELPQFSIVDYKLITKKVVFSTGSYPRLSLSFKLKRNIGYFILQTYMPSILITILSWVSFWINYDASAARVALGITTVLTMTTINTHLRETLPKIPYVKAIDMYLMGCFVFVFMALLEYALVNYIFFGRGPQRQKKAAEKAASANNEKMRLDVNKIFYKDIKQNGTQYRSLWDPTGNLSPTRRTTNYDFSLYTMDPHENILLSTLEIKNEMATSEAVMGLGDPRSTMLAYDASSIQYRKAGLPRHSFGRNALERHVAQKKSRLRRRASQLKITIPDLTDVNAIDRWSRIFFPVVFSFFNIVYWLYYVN
# T1 sequence (P18507 40-475 partner): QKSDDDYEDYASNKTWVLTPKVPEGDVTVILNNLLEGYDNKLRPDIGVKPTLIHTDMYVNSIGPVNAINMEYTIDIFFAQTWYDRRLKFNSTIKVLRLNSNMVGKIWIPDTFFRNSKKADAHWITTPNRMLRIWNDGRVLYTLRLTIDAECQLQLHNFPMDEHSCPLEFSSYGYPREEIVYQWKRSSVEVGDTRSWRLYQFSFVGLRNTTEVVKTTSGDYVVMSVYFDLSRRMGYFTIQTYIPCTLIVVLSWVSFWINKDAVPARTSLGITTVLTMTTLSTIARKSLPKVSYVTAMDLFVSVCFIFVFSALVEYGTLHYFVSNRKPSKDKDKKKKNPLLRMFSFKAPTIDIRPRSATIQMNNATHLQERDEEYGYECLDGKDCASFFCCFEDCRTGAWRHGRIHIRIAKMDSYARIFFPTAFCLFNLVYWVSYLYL
Structure (SMILES),Emax at 0.1 µM,Emax at 1 µM,Emax,EC50
C[C@]12CC[C@@H](O)C[C@@H]1CC[C@@H]1[C@@H]2CC[C@]2(C)[C@@H](C(=O)Cn3cnnn3)CCC[C@@H]12 [KH005],20 to 40%,60 to 80%,–,–
Cn1nnnc1SCC(=O)[C@H]1CCC[C@H]2[C@@H]3CC[C@H]4C[C@](C)(O)CC[C@]4(C)[C@H]3CC[C@]12C [KH031],0 to 20%,40 to 60%,–,–
Cn1nnnc1SCC(=O)[C@H]1CCC[C@H]2[C@@H]3CC[C@@H]4C[C@](C)(O)CC[C@@H]4[C@H]3CC[C@]12C [KH047],0 to 20%,0 to 20%,–,–
C[C@@]1(O)CC[C@@]2(C)[C@@H](CC[C@@H]3[C@@H]2CC[C@]2(C)[C@@H](C(=O)COc4ncnc5cnc(F)cc45)CCC[C@@H]32)C1 [KH036],0 to 20%,0 to 20%,–,–
Cc1nnn(CC(=O)[C@H]2CCC[C@H]3[C@@H]4CC[C@H]5C[C@H](O)CC[C@]5(C)[C@H]4CC[C@]23C)n1 [KH018],0 to 20%,20 to 40%,–,–
C[C@@]1(O)CC[C@@]2(C)[C@@H](CC[C@@H]3[C@@H]2CC[C@]2(C)[C@@H](C(=O)C(n4cc(C#N)cn4)n4cc(C#N)cn4)CCC[C@@H]32)C1 [KH027],0 to 20%,0 to 20%,–,–
C[C@@]1(O)CC[C@@]2(C)[C@@H](CC[C@@H]3[C@@H]2CC[C@]2(C)[C@@H](C(=O)Cn4cc(C#N)cn4)CCC[C@@H]32)C1 [KH040],0 to 20%,20 to 40%,–,–
Cc1nnnn1CC(=O)[C@H]1CCC[C@H]2[C@@H]3CC[C@H]4C[C@H](O)CC[C@]4(C)[C@H]3CC[C@]12C [KH019],0 to 20%,0 to 20%,–,–
C[C@@]1(O)CC[C@H]2[C@H](CC[C@@H]3[C@@H]2CC[C@]2(C)[C@@H](C(=O)COc4nc[nH]n4)CCC[C@@H]32)C1 [KH051],0 to 20%,0 to 20%,–,–
C[C@@]1(O)CC[C@@]2(C)[C@@H](CC[C@@H]3[C@@H]2CC[C@]2(C)[C@@H](C(=O)COc4ccon4)CCC[C@@H]32)C1 [KH038],0 to 20%,40 to 60%,–,–
C[C@@]1(O)CC[C@@]2(C)[C@@H](CC[C@@H]3[C@@H]2CC[C@]2(C)[C@@H](C(=O)COc4ccc5ccccc5n4)CCC[C@@H]32)C1 [KH033],0 to 20%,20 to 40%,–,–
C[C@@]1(O)CC[C@H]2[C@H](CC[C@@H]3[C@@H]2CC[C@]2(C)[C@@H](C(=O)Cn4ncnn4)CCC[C@@H]32)C1 [KH052],0 to 20%,0 to 20%,–,–
C[C@]12CC[C@@H](O)C[C@@H]1CC[C@@H]1[C@@H]2CC[C@]2(C)[C@@H](C(=O)Cn3cc(Cl)cn3)CCC[C@@H]12 [KH013],0 to 20%,0 to 20%,–,–
COc1nnc(OCC(=O)[C@H]2CCC[C@H]3[C@@H]4CC[C@H]5C[C@](C)(O)CC[C@]5(C)[C@H]4CC[C@]23C)n1C [KH030],0 to 20%,0 to 20%,–,–
C[C@]12CC[C@@H](O)C[C@@H]1CC[C@@H]1[C@@H]2CC[C@]2(C)[C@@H](C(=O)Cn3ccnn3)CCC[C@@H]12 [KH003],20 to 40%,60 to 80%,72.8%,0.478 µM
C[C@]12CC[C@@H](O)C[C@@H]1CC[C@@H]1[C@@H]2CC[C@]2(C)[C@@H](C(=O)Cn3ncc4ccccc43)CCC[C@@H]12 [KH011],20 to 40%,60 to 80%,–,–
C[C@]12CC[C@@H](O)C[C@@H]1CC[C@@H]1[C@@H]2CC[C@]2(C)[C@@H](C(=O)Cn3cnc4ncnc(Cl)c43)CCC[C@@H]12 [KH015],0 to 20%,0 to 20%,–,–
C[C@]12CC[C@@H](O)C[C@@H]1CC[C@@H]1[C@@H]2CC[C@]2(C)[C@@H](C(=O)Cn3cc(C#N)cn3)CCC[C@@H]12 [KH002],0 to 20%,60 to 80%,74.6%,0.464 µM

Structure (SMILES),Emax at 0.1 µM,Emax at 1 µM,Emax,EC50
C[C@@]1(O)CC[C@@]2(C)[C@@H](CC[C@@H]3[C@@H]2CC[C@]2(C)[C@@H](C(=O)CO)CCC[C@@H]32)C1 [KH042],0 to 20%,40 to 60%,–,–
C[C@]12CC[C@@H](O)C[C@@H]1CC[C@@H]1[C@@H]2CC[C@]2(C)[C@@H](C(=O)CO)CCC[C@@H]12 [KH014],0 to 20%,40 to 60%,–,–
C[C@@]1(O)CC[C@H]2[C@H](CC[C@@H]3[C@@H]2CC[C@]2(C)[C@@H](C(=O)COc4ncnc5cnc(F)cc45)CCC[C@@H]32)C1 [KH048],0 to 20%,0 to 20%,–,–
COc1ncnc2ncn(CC(=O)[C@H]3CCC[C@H]4[C@@H]5CC[C@H]6C[C@H](O)CC[C@]6(C)[C@H]5CC[C@]34C)c12 [KH017],0 to 20%,0 to 20%,–,–
C[C@]12CC[C@@H](O)C[C@@H]1CC[C@@H]1[C@@H]2CC[C@]2(C)[C@@H](C(=O)CN3CC4(COC4)C3)CCC[C@@H]12 [KH020],0 to 20%,0 to 20%,–,–
C[C@]12CC[C@@H](O)C[C@@H]1CC[C@@H]1[C@@H]2CC[C@]2(C)[C@@H](C(=O)Cn3cnc4cncnc43)CCC[C@@H]12 [KH012],0 to 20%,60 to 80%,–,–
C[C@@]1(O)CC[C@@]2(C)[C@@H](CC[C@@H]3[C@@H]2CC[C@]2(C)[C@@H](C(=O)CSc4cccs4)CCC[C@@H]32)C1 [KH041],0 to 20%,60 to 80%,–,–
C[C@]12CC[C@@H](O)C[C@@H]1CC[C@@H]1[C@@H]2CC[C@]2(C)[C@@H](C(=O)Cn3ccc(C#N)n3)CCC[C@@H]12 [KH008],20 to 40%,> 80%,–,–
C[C@]12CC[C@@H](O)C[C@@H]1CC[C@@H]1[C@@H]2CC[C@]2(C)[C@@H](C(=O)Cn3cccn3)CCC[C@@H]12 [KH006],20 to 40%,40 to 60%,–,–
C[C@@]1(O)CC[C@@]2(C)[C@@H](CC[C@@H]3[C@@H]2CC[C@]2(C)[C@@H](C(=O)COc4ncnc5c(F)cccc45)CCC[C@@H]32)C1 [KH035],0 to 20%,20 to 40%,–,–
C[C@@]1(O)CC[C@@]2(C)[C@@H](CC[C@@H]3[C@@H]2CC[C@]2(C)[C@@H](C(=O)Cn4ccc(C#N)n4)CCC[C@@H]32)C1 [KH024],0 to 20%,40 to 60%,–,–
Cc1cccc2c(OCC(=O)[C@H]3CCC[C@H]4[C@@H]5CC[C@H]6C[C@](C)(O)CC[C@]6(C)[C@H]5CC[C@]34C)ncnc12 [KH029],0 to 20%,0 to 20%,–,–
Cn1cnnc1SCC(=O)[C@H]1CCC[C@H]2[C@@H]3CC[C@H]4C[C@](C)(O)CC[C@]4(C)[C@H]3CC[C@]12C [KH037],0 to 20%,0 to 20%,–,–
C[C@@]1(O)CC[C@@]2(C)[C@@H](CC[C@@H]3[C@@H]2CC[C@]2(C)[C@@H](C(=O)COc4nc[nH]n4)CCC[C@@H]32)C1 [KH034],0 to 20%,0 to 20%,–,–
C[C@]12CC[C@@H](O)C[C@@H]1CC[C@@H]1[C@@H]2CC[C@]2(C)[C@@H](C(=O)Cn3ccnc3)CCC[C@@H]12 [KH007],0 to 20%,40 to 60%,–,–
C[C@]12CC[C@@H](O)C[C@@H]1CC[C@@H]1[C@@H]2CC[C@]2(C)[C@@H](C(=O)Cn3cc(C(F)(F)F)cn3)CCC[C@@H]12 [KH010],0 to 20%,20 to 40%,–,–
C[C@@]1(O)CC[C@@]2(C)[C@@H](CC[C@@H]3[C@@H]2CC[C@]2(C)[C@@H](C(=O)Cn4nccn4)CCC[C@@H]32)C1 [KH043],0 to 20%,20 to 40%,–,–
